Results taken from patent publication US20250281606A1 (AKSEERA PHARMA CORP., priority 2020, published 2025).
“And” between values parts separate entries of the source, which are not always exact repeats. Equal values may be shown once. Read-outs that look alike come from different tables or passages of the source.

What was measured:
[1] = tested on: IgG and IgM antibody titres (serum); assay type: in vivo, Balb/c mice
[2] = tested on: IgG and IgM antibody titres (serum); assay: IgG and IgM antibody titres in mice vaccinated with Covishield, with or without oral CBD; settings: for IgG, serum (CLIA, EIA) / IgM, serum (CLIA, EIA): individual mice (F/M); for augmentation of overall IgG response to vaccine by CBD / augmentation of overall IgM response to vaccine by CBD: CBD throughout or until vaccination, same magnitude, vs vaccine alone; for time after vaccine by which IgG and IgM responses were significantly elevated compared to mice not given CBD: CBD throughout the study or just until vaccine
[3] = 0 Day, group GII (CS): Covishild + CBD 102.5 mg/kg/d gavage day -7 to 28
[4] = 0 Day, group GIII (CS): Covishild + CBD 102.5 mg/kg/d gavage day -7 to 0, then discontinued
[5] = 7th Day, group GII (CS): Covishild + CBD 102.5 mg/kg/d gavage day -7 to 28
[6] = 7th Day, group GIII (CS): Covishild + CBD 102.5 mg/kg/d gavage day -7 to 0, then discontinued
[7] = 14 Day, group GII (CS): Covishild + CBD 102.5 mg/kg/d gavage day -7 to 28
[8] = 14 Day, group GIII (CS): Covishild + CBD 102.5 mg/kg/d gavage day -7 to 0, then discontinued

`C=C(C)[C@@H]1CCC(C)=C[C@H]1c1c(O)cc(CCCCC)cc1O` [CBD Formulation, Cannabidiol] was tested. Which “IgG, serum (CLIA, EIA)” value ([1]; 0 Day) did it give?
The value was 7.4 IU/mL and 6.8 IU/mL and 7.2 IU/mL and 7.1 IU/mL and 9.2 IU/mL and 7.5 IU/mL and 8.21 IU/mL.

What about the “IgG, serum (CLIA, EIA)” value ([1]; 14 Day) of the same compound?
The value was 7.2 IU/mL and 6.4 IU/mL and 7.1 IU/mL and 7.4 IU/mL and 6 IU/mL and 9.1 IU/mL and 7 IU/mL and 7.3 IU/mL.

What about the “IgM, serum (CLIA, EIA)” value ([1]; 14 Day) of the same compound?
The value was 9.3 AU/mL and 9.8 AU/mL and 10.2 AU/mL and 10.3 AU/mL and 9 AU/mL and 10.4 AU/mL and 9.2 AU/mL.

And the “IgG, serum (CLIA, EIA)” value ([1]; 21 Day)?
Its value is 7.3 IU/mL and 7.1 IU/mL and 7.5 IU/mL and 7.2 IU/mL and 9.1 IU/mL and 7 IU/mL and 7.4 IU/mL.

What about the “IgG, serum (CLIA, EIA)” value ([1]; mouse, in vivo) of the same compound?
Its value is 7.2 IU/mL and 7.1 IU/mL and 7.3 IU/mL and 6.9 IU/mL and 9.2 IU/mL and 7.5 IU/mL and 8.21 IU/mL.

And the “IgM, serum (CLIA, EIA)” value ([1]; mouse, in vivo)?
Its value is 10.2 AU/mL and 9.8 AU/mL and 10 AU/mL and 10.1 AU/mL and 10.3 AU/mL.

And the “augmentation by CBD of the response to Covaxin compared with Covishield” value ([1]; mouse, in vivo)?
Its value is “tended to be less”.

And the “day at which a rise in IgM was seen” value ([1]; mouse, in vivo)?
Its value is 7 days.

And the “day at which a significant rise in IgG and IgM was apparent” value ([1]; mouse, in vivo)?
The value was 7 days.

And the “day by which a rise in IgG was seen” value ([1]; mouse, in vivo)?
The value was no more than 14 days.

What about the “overall IgM response to Covaxin versus Covaxin alone” value ([1]; mouse, in vivo) of the same compound?
The value was “augmented”.

And the “IgG, serum (CLIA, EIA)” value [2, 3]?
The value was 7.4 IU/mL and 7.8 IU/mL and 7.1 IU/mL (2×) and 6.8 IU/mL and 6.4 IU/mL.

And the “IgM, serum (CLIA, EIA)” value [2, 3]?
Its value is 9.2 AU/mL (2×) and 8.2 AU/mL and 10.1 AU/mL and 9.4 AU/mL and 8.8 AU/mL.

What about the “IgG, serum (CLIA, EIA)” value [2, 4] of the same compound?
The value was 7.5 IU/mL and 6.8 IU/mL (2×) and 6.5 IU/mL and 7.21 IU/mL and 7.2 IU/mL.

What about the “IgM, serum (CLIA, EIA)” value [2, 4] of the same compound?
The value was 9.4 AU/mL and 9.3 AU/mL (3×) and 9.2 AU/mL and 9.1 AU/mL.

What about the “IgG, serum (CLIA, EIA)” value [2, 5] of the same compound?
Its value is 7.4 IU/mL and 7.5 IU/mL and 8.2 IU/mL and 7.3 IU/mL (2×) and 7.8 IU/mL.

What about the “IgM, serum (CLIA, EIA)” value [2, 5] of the same compound?
Its value is 10.2 AU/mL and 8.2 AU/mL and 10.11 AU/mL and 10.5 AU/mL and 10.4 AU/mL.

And the “IgG, serum (CLIA, EIA)” value [2, 6]?
Its value is 7.4 IU/mL and 6.9 IU/mL and 7.3 IU/mL (2×) and 7.2 IU/mL and 7.1 IU/mL.

And the “IgM, serum (CLIA, EIA)” value [2, 6]?
Its value is 9.2 AU/mL and 9.6 AU/mL and 10.1 AU/mL and 10.2 AU/mL and 10.3 AU/mL.

And the “IgG, serum (CLIA, EIA)” value [2, 7]?
Its value is 7.5 IU/mL and 7.8 IU/mL (3×) and 7.6 IU/mL and 8.2 IU/mL.

What about the “IgM, serum (CLIA, EIA)” value [2, 7] of the same compound?
The value was 10.5 AU/mL and 10.15 AU/mL and 10.52 AU/mL.

What about the “IgG, serum (CLIA, EIA)” value [2, 8] of the same compound?
The value was 7.5 IU/mL (2×) and 7.6 IU/mL and 7.3 IU/mL and 7.8 IU/mL and 7.9 IU/mL.

What about the “IgM, serum (CLIA, EIA)” value [2, 8] of the same compound?
Its value is 10.1 AU/mL and 10.5 AU/mL and 10.3 AU/mL (2×).

What about the “IgG, serum (CLIA, EIA)” value ([2]; 21 Day, group GII (CS): Covishild + CBD 102.5 mg/kg/d gavage day -7 to 28) of the same compound?
Its value is 7.8 IU/mL (2×) and 7.1 IU/mL and 7.5 IU/mL and 7.9 IU/mL and 8.1 IU/mL.

And the “IgG, serum (CLIA, EIA)” value ([2]; 21 Day, group GIII (CS): Covishild + CBD 102.5 mg/kg/d gavage day -7 to 0, then discontinued)?
Its value is 7.6 IU/mL (2×) and 8.1 IU/mL (3×) and 7.8 IU/mL.

What about the “augmentation of overall IgG response to vaccine by CBD” value ([2]; FIG. 2C, average overall response over 28 days) of the same compound?
The value was 15%.

What about the “augmentation of overall IgM response to vaccine by CBD” value ([2]; FIG. 2D, average overall response over 28 days) of the same compound?
The value was 25%.

And the “augmentation of overall IgG response to vaccine by CBD” value ([2]; FIG. 2I, AUC over 28 days, female mice)?
The value was 13%.

And the “augmentation of overall IgM response to vaccine by CBD” value ([2]; FIG. 2J, AUC over 28 days, female mice)?
Its value is 21%.

And the “time after vaccine by which IgG and IgM responses were significantly elevated compared to mice not given CBD” value ([2]; FIGS. 2E and 2F)?
The value was no more than 7 days.

What about the “IgG response at day 7 versus vehicle (no CBD) group” value ([2]; FIGS. 2K and 2L, female mice, CBD given throughout the trial) of the same compound?
The value was “significantly better IgG response”.

And the “time after vaccine by which IgG and IgM responses were significantly elevated compared to mice not given CBD” value ([2]; FIGS. 2K and 2L, female mice)?
The value was no more than 14 days.

And the “course of antibody titres in mice given vaccine plus CBD” value ([2]; compared with vaccine without CBD, whose titres did not rise, up to day 28)?
Its value is “rose and remained elevated until day 28”.
